Where “and” joins values, the source holds several entries; their conditions need not be identical. Identical values can stand only once. Entries after “also recorded” stand apart in the source; their conditions may differ.
Tests used:
[1] = molecular target: T1, OSM (Homo sapiens, UniProt P13725); assay: Fluorescence quenching assay of SMI binding to OSM; conditions: average of three independent replicates, errors at 95% confidence level, read-out: KD (OSM-SMI dissociation constant)
T1 sequence (P13725 26-252): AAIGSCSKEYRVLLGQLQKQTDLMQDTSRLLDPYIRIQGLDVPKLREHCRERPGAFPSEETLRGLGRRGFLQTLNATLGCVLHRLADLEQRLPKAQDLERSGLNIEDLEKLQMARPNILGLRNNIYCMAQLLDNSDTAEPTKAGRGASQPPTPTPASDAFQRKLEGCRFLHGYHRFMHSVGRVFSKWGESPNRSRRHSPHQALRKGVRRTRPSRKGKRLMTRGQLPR
Procedure: To perform fluorescence quenching assays, 2 mL of 1 μM OSM solution in polymethylmethacrylate cuvettes was prepared by dilution of a concentrated stock solution of recombinant OSM with buffer solution (100 mM sodium chloride, 50 mM sodium phosphate, 50 mM freshly added DTT, pH = 6.6). Cuvettes were titrated with 5 μL increments of a 1 mM small molecule stock solution in DMSO, with a cuvette titrated with an equivalent volume of DMSO as a control. […] In cases where little to no significant quenching was observed, the titration was supplemented with 2.5 μL increments of a 10 mM small molecule stock solution to increase the concentration delivered. The fluorescence intensity measurements were obtained on a Cary Eclipse spectrofluorometer equipped with a Xenon arc lamp. Fluorescence intensities were measured by exciting at 280 nm (4 nm slit width) and recording the emission from 345 to 355 nm with a photomultiplier tube voltage of 700 V, unless otherwise noted. Each titration point was normalized to OSM’s native fluorescence intensity, corrected by adding the decrease in fluorescence intensity caused by dilution with DMSO, and the average value of the three replicates for each point was plotted against concentration of small molecule delivered and fit to a modified Stern–Volmer function as described by Charlier and Plapp. Binding affinity (K D) values were obtained […] from the fitting routine. All curve-fitting analysis was performed in GraphPad Prism 8.0.

[2] = molecular target: T2, 15N OSM (Homo sapiens, UniProt P13725); assay: 1H,15N HSQC NMR chemical shift perturbation titration; type: binding; conditions: 100 μM 15N OSM; residues Asp87, Gln90, Arg91, Leu92 at or near site III
T2 construct: ^15N-isotope-labeled OSM^1-187 protein was titrated individually with each of the SMIs; made in house
T2 sequence (P13725 26-212): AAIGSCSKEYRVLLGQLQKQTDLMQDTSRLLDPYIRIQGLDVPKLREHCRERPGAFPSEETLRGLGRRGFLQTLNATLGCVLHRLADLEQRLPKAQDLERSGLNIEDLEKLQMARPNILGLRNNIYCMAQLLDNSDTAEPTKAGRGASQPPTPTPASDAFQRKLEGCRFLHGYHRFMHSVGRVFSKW
Procedure: Protein was prepared and chemical shift perturbation (CSP) experiments were conducted as previously described by Mass et al. For SMI inhibitor titration studies, in a 5 mm NMR tube, 600 μL of a 100 μM sample of ^15N OSM in NMR buffer (50 mM sodium phosphate (pH 6.6), 100 mM sodium chloride, and 5% D2O) was titrated with a 20 mM stock solution of SMI in d6-dimethyl sulfoxide. The SMI stock solutions were added in 0.75–4 μL increments to a final concentration of 260 μM (SMI-10B) or 200 μM (SMI-10B13) and final volumes of 636 μL (SMI-10B) and 614.25 μL (SMI-10B13). Titration points for SMI-10B were: 0, 20, 40, 60, 80, 100, 140, 180, 220, and 260 μM. Titration points for SMI-10B13 were: 0, 0.5, 1.0, 6.0, 10, 20, 30, 40, 50, 60, and 200 μM.

[3] = tested on: OSM-mediated signaling (pSTAT3, pAKT, pJNK, pERK) in T47D cells; assay: Immunoblot of OSM-mediated signaling in T47D cells; type: cell-based, human; conditions: SMI 10 μM, OSM 10 ng/mL, 30 min
Procedure: For immunoblot analysis, T47D breast cancer cells were treated and collected in the same manner as described above for the ELISA preparation. After lysate collection, samples were run on a 10% SDS-PAGE gel and transferred to a nitrocellulose membrane via semidry transfer. Blots were rinsed with DI H2O and allowed to completely dry at room temperature before blocking with LiCor Intercept PBS Blocking Buffer (LiCor, Lincoln, NE; Cat# 927-90001) for 1 h. After blocking, primary antibodies (1:1000) suspended in blocking buffer supplemented with 0.1% Tween were added, shaken at room temperature for 1 h, and stored at 4 °C overnight. Membranes were then washed 6 times for 5 minutes each with 1X PBS supplemented with 0.5% Tween while shaking at room temperature, and secondary antibodies (1:15,000) were applied and incubated for 1 h. Afterward, membranes were washed as previously described above and imaged at 700 nm using the LiCor Odyssey CLx Imaging System. Quantification of immunoblots was performed using the LiCor Image Studio software, normalizing to β-Actin, and calculating relative fold change compared to nontreated samples. Antibodies used included phospho-STAT3 (Y705) (Cell Signaling Technology, Danvers, MA; cat. no. 9145), phospho-AKT (S473) (Cell Signaling Technology, Danvers, MA; cat. no. 4060), phospho-JNK ([…]/[…]) (Cell Signaling Technology, Danvers, MA; cat. no. 4668), phospho-ERK (T202/Y204) (Cell Signaling Technology, Danvers, MA; cat. no. 9101), β-Actin (Cell Signaling Technology; cat. no. 3700), and donkey antirabbit IRDye 800CW (LiCor, Lincoln, NE; Cat# 925-32213).

[4] = tested on: T47D and MCF-7 human breast cancer cells; assay: MTS cell viability assay; type: cell-based; conditions: T47D and MCF-7; 100 μM to 0.1 nM, 24 h
Procedure: Cell viability was assessed using the CellTiter 96 AQueous One Solution Cell Proliferation Assay (Promega, cat. no. G3580), following the manufacturer’s instructions. Briefly, T47D and MCF-7 human breast cancer cells were seeded in 96-well plates at a density of 10,000 cells/well in 100 μL of complete growth medium and allowed to adhere overnight. Cells were then treated with a serial dilution (100 μM to 0.1 nM) of SMI-10B, SMI-10B13, Temozolomide (positive control), or vehicle (DMSO) for 24 h. Following treatment, 20 μL of MTS reagent was added directly to each well, and plates were incubated at 37 °C in a humidified incubator with 5% CO2 and imaged after 1 h of incubation. Absorbance was measured at 490 nm by using a microplate reader. Cell viability was expressed as a percentage relative to the vehicle-treated controls, and experiments were performed in triplicate.

SMILES | Kd [1] | Chemical shift perturbation of 15N OSM on titration [2] | Inhibition of OSM-mediated signaling cascades by immunoblot (words) [3] | Inhibition of OSM-mediated signaling cascades by immunoblot (words) ([3]; listed as 10B) | Cytotoxicity / cell viability via MTS assay [4]
O=C(O)/C=C/c1cc(-c2ccc3c(c2)OCO3)c(-c2ccc3c(c2)OCO3)o1 [SMI-10B, (E)-3-(4,5-Bis(benzo[d][1,3]dioxol-5-yl)furan-2-yl)acrylic acid] | 12.9 ± 1.5 µM | clear shifts in the fast exchange regime | significant reductions, near nontreated levels | capable of inhibiting multiple cascades | Minimal toxicity; also recorded: minimal to no cytotoxicity at high concentrations
O=C(O)/C=C/c1cc(-c2ccc3cc[nH]c3c2)c(-c2ccc3cc[nH]c3c2)o1 [SMI-10B13, (E)-3-(4,5-di(1H-Indol-6-yl)furan-2-yl)acrylic Acid] | ~7 µM and 6.6 µM | binding to the same site as SMI-10B with a higher affinity | most effective; also recorded: better at inhibiting pSTAT3, pAKT, pJNK, and pERK signaling | – | Minimal toxicity; also recorded: minimal to no cytotoxicity at high concentrations

From PMC12362618, “Development of the First Small-Molecule Inhibitor Targeting Oncostatin M for Treatment of Breast Cancer” (Journal of Medicinal Chemistry, 2025)
